Drawing on patent US8778966B2, “Quinolinone derivatives as PARP and tank inhibitors” (Janssen Pharmaceutica, NV, priority 2007, dated 2014), this text covers melting point and tubulin polymerisation score for 29 compounds.

Tested on in one data set: not given
Experiment: not given
Conditions: not given
A word on the melting point: it is the temperature of the solid-liquid transition. `CCc1cc2ccc([C@](C)(C#N)Cc3ccccc3)cc2[nH]c1=O` (single isomer, unassigned) [Compound 45] showed a melting point of 162 °C.

Regarding `CCc1cc2ccc([C@@](C)(C#N)Cc3ccccc3)cc2[nH]c1=O` (single isomer, unassigned) [Compound 46], the melting point was 177 °C.

With `CCc1cc2ccc(C(C)(C#N)CC3COc4ccccc4O3)cc2[nH]c1=O` (single isomer, unassigned) [Compound 47], the melting point is 176 °C.

Compound `CCc1cc2ccc([C@](C)(C#N)Cc3nc(OC)cc(OC)n3)cc2[nH]c1=O` (single isomer, unassigned) [Compound 52] gave a melting point of 178 °C.

For the compound `CCc1cc2ccc([C@@](C)(C#N)Cc3nc(OC)cc(OC)n3)cc2[nH]c1=O` (single isomer, unassigned) [Compound 53], the melting point was found to be 163 °C.

In the case of `CCc1cc2ccc(C(C)(C#N)Cc3cccc(C#C[Si](C)(C)C)c3)cc2[nH]c1=O` (stereo not drawn) [Compound 1], the melting point came out at 178 °C.

In the case of `CCc1cc2ccc(C(C)(C#N)Cc3cccc(COC)c3)cc2[nH]c1=O` (stereo not drawn) [Compound 8], the melting point was 122 °C.

For `CCc1cc2ccc(C(C)(C#N)Cc3cccc(CO)c3)cc2[nH]c1=O` (stereo not drawn) [Compound 9], the melting point was 182 °C.

Compound `CCc1cc2ccc(C(C#N)(Cc3ccccc3)CC3CC3)cc2[nH]c1=O` (stereo not drawn) [Compound 28] came in with a melting point of 212 °C.

`CC(C#N)(Cc1ccccc1)c1ccc2cc(CO)c(=O)[nH]c2c1` (stereo not drawn) [Compound 40] showed a melting point of 176 °C.

Compound `CCc1cc2ccc(C(C)(C#N)Cc3c(F)ccc(C)c3F)cc2[nH]c1=O` (stereo not drawn) [Compound 41] came in with a melting point of 190 °C.

As for `CCc1cc2ccc(C(C)(C#N)Cc3nnsc3Cl)cc2[nH]c1=O` (stereo not drawn) [Compound 42], the melting point is 220 °C.

On to `CCc1cc2ccc(C(C)(C#N)Cc3nc(OC)cc(OC)n3)cc2[nH]c1=O` (stereo not drawn) [Compound 43], for which the melting point worked out at 90 °C.

As to `CCc1cc2ccc(C(C)(C#N)Cc3ccccc3)cc2[nH]c1=O` (stereo not drawn) [Compound 44], the melting point was found to be 168 °C.

Take `CCc1cc2ccc(C(C)(C#N)Cc3cccc(Br)c3)cc2[nH]c1=O` (stereo not drawn) [Compound 49]: the melting point was determined as 186 °C.

The compound `CCOP(=O)(OCC)c1cccc(CC(C)(C#N)c2ccc3cc(CC)c(=O)[nH]c3c2)c1` (stereo not drawn) [Compound 50] registered a melting point of 80 °C.

In the case of `CCc1cc2ccc(C(C)(C#N)Cc3cccc(C#N)c3)cc2[nH]c1=O` (stereo not drawn) [Compound 51], the melting point is 192 °C.

Compound `CCc1cc2ccc(C(C)(C#N)CCOc3ccc([N+](=O)[O-])cc3)cc2[nH]c1=O` (stereo not drawn) [Compound 54] gave a melting point of 216 °C.

`Cc1cc2ccc(C(C)(C#N)Cc3cc4ccccc4[nH]3)cc2[nH]c1=O` (stereo not drawn) [Compound 234]: the melting point is over 260 °C.

In a further data set the test system is tubulin. The data set is described as follows: Tubulin polymerization assay. In kind it is biochemical. Details: key: a compound showing 0 to 50% inhibition at 20 μM is reported as score 1; Score 2 compounds are defined as compound showing more than 50% inhibition at 20 μM and less than 50% inhibition at 5 μM; a compound showing more than 50% inhibition at 5 μM is reported as score 3. The following applies: tested at 20 μM and 5 μM. The procedure, abridged:
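Cytoskeleton kit tubulin was run in a 10 µl final volume at 37 °C, with fluorescence read every minute for 1 h. Polymerization was taken as the maximum slope (4-point linear regression) and expressed as % of no-compound control. Compounds were tested at 20 µM, then at 5 µM if inhibition exceeded 50%, and scored by % inhibition.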
`CCc1cc2ccc([C@@](C)(C#N)Cc3ccccc3)cc2[nH]c1=O` (single isomer, unassigned) [Compound 46] showed a tubulin polymerisation score of 2.

Consider `CCc1cc2ccc([C@](C)(C#N)Cc3nc(OC)cc(OC)n3)cc2[nH]c1=O` (single isomer, unassigned) [Compound 52], for which the tubulin polymerisation score is on record as 1 (a compound showing 0 to 50% inhibition at 20 μM is reported as score 1).

`CCc1cc2ccc([C@@](C)(C#N)Cc3nc(OC)cc(OC)n3)cc2[nH]c1=O` (single isomer, unassigned) [Compound 53]: the tubulin polymerisation score is 3 (a compound showing more than 50% inhibition at 5 μM is reported as score 3).

`CCc1cc2ccc(C(C)(C#N)Cc3nnsc3Cl)cc2[nH]c1=O` (stereo not drawn) [Compound 42]: the tubulin polymerisation score was 1 (a compound showing 0 to 50% inhibition at 20 μM is reported as score 1).

Consider `CCc1cc2ccc(C(C)(C#N)Cc3cccc(N4CCN(C)CC4)c3)cc2[nH]c1=O` (stereo not drawn) [Compound 66], for which the tubulin polymerisation score is 1 (a compound showing 0 to 50% inhibition at 20 μM is reported as score 1).

For `Cc1cc2ccc(C(C)(C#N)Cc3nc4ccccc4s3)cc2[nH]c1=O` (stereo not drawn) [Compound 75], the tubulin polymerisation score is listed as 1 (a compound showing 0 to 50% inhibition at 20 μM is reported as score 1).

For `CCc1cc2ccc(C(C)(C#N)Cc3nc4ccccc4o3)cc2[nH]c1=O` (stereo not drawn) [Compound 85], the tubulin polymerisation score is listed as 1 (a compound showing 0 to 50% inhibition at 20 μM is reported as score 1).

`CCc1cc2ccc(C(C)(C#N)Cc3nn(C)c4ccccc34)cc2[nH]c1=O` (stereo not drawn) [Compound 95] came in with a tubulin polymerisation score of 2.

For the compound `CCc1cc2ccc(C(C)(C#N)Cc3cn4ccccc4n3)cc2[nH]c1=O` (stereo not drawn) [Compound 96], the tubulin polymerisation score is given as 1 (a compound showing 0 to 50% inhibition at 20 μM is reported as score 1).

Turning to `CCc1cc2ccc(C(C)(C#N)Cc3ccncc3)cc2[nH]c1=O` (stereo not drawn) [Compound 98], the tubulin polymerisation score is reported as 1 (a compound showing 0 to 50% inhibition at 20 μM is reported as score 1).

With `CCc1cc2ccc(C(C)(C#N)Cc3cc(Cl)ccc3Cl)cc2[nH]c1=O` (stereo not drawn) [Compound 99], the tubulin polymerisation score is recorded as 3 (a compound showing more than 50% inhibition at 5 μM is reported as score 3).

On to `CCc1cc2ccc(C(C)(C#N)Cc3ccc(F)c(C#N)c3)cc2[nH]c1=O` (stereo not drawn) [Compound 267], for which the tubulin polymerisation score is listed as 2.

For the compound `CCc1cc2ccc(C(C)(C#N)CCOc3ccccc3C#N)cc2[nH]c1=O` (stereo not drawn) [Compound 276], the tubulin polymerisation score is listed as 1 (a compound showing 0 to 50% inhibition at 20 μM is reported as score 1).

For the compound `CCc1cc2ccc(C(C)(C#N)CCOc3cc(Cl)c(Cl)cc3Cl)cc2[nH]c1=O` (stereo not drawn) [Compound 277], the tubulin polymerisation score was determined as 2.
